# Test results taken from ChEMBL document CHEMBL4680316, “JNK selective inhibitor, IQ-1S, protects the mice against lipopolysaccharides-induced sepsis” (2021).
# Calls of active or inactive are those of the source. No cut-off for these calls is given here.
# What was measured:
# [1] = tested on: Mus musculus; experiment: Antiinflammatory activity in wild type C57BL/6 mouse model of LPS and D-galactosamine-induced sepsis assessed as survival of organism at 50 to 200 ug, iv administered 2 hrs before LPS and D-galactosamine administration and observed for 20 hrs; assay type: functional, organism-based; conditions: dose 50-200 µg, time 22.0 hrs
# [2] = tested on: Mus musculus; experiment: Antiinflammatory activity in C57BL/6 mouse model of LPS-induced sepsis assessed as CD4 cells in spleen at 200 ug, iv administered 2 hrs after LPS administration and measured after 10 hrs of post LPS administration by flow cytometry analysis (reference value: 23.8 %); assay type: functional; conditions: dose 200 µg; time 8 hrs
# [3] = tested on: Mus musculus; experiment: Antiinflammatory activity in C57BL/6 mouse model of LPS-induced sepsis assessed as CD8+ cells in spleen at 200 ug, iv administered 2 hrs after LPS administration and measured after 10 hrs of post LPS administration by flow cytometry analysis (reference value: 13 %); assay type: functional; conditions: dose 200 µg; time 8 hrs
# [4] = tested on: Mus musculus; experiment: Antiinflammatory activity in C57BL/6 mouse model of LPS-induced sepsis assessed as neutrophils in spleen at 200 ug, iv administered 2 hrs after LPS administration and measured after 10 hrs of post LPS administration by flow cytometry analysis (reference value: 24.8 %); assay type: functional; conditions: dose 200 µg; time 8 hrs
# [5] = tested on: Mus musculus; experiment: Antiinflammatory activity in C57BL/6 mouse model of LPS-induced sepsis assessed as macrophages in spleen at 200 ug, iv administered 2 hrs after LPS administration and measured after 10 hrs of post LPS administration by flow cytometry analysis (reference value: 9.69 %); assay type: functional; conditions: dose 200 µg; time 8 hrs
# [6] = tested on: Mus musculus; experiment: Antiinflammatory activity in wild type C57BL/6 mouse model of LPS and D-galactosamine-induced sepsis assessed as decrease in area of immune cells in lungs at 50 to 200 ug, ip administered 2 hrs after LPS and D-galactosamine administration and measured after 10 hrs of post LPS administration by H and E staining based imaging analysis; assay type: functional, organism-based; conditions: dose 50-200 µg, time 8.0 hrs
# [7] = tested on: Mus musculus; experiment: Antiinflammatory activity in wild type C57BL/6 mouse model of LPS and D-galactosamine-induced sepsis assessed as decrease in serum TNF-alpha level at 50 to 200 ug, ip administered 2 hrs after LPS and D-galactosamine administration and measured after 10 hrs of post LPS administration by ELISA; assay type: functional, organism-based; conditions: dose 50-200 µg, time 8.0 hrs
# [8] = tested on: Mus musculus; experiment: Antiinflammatory activity in wild type C57BL/6 mouse model of LPS and D-galactosamine-induced sepsis assessed as decrease in serum IL-6 level at 50 to 200 ug, ip administered 2 hrs after LPS and D-galactosamine administration and measured after 10 hrs of post LPS administration by ELISA; assay type: functional, organism-based; conditions: dose 50-200 µg, time 8.0 hrs
# [9] = tested on: Mus musculus; experiment: Antiinflammatory activity in wild type C57BL/6 mouse model of LPS and D-galactosamine-induced sepsis assessed as decrease in serum IL-1beta level at 50 to 200 ug, ip administered 2 hrs after LPS and D-galactosamine administration and measured after 10 hrs of post LPS administration by ELISA; assay type: functional, organism-based; conditions: dose 50-200 µg, time 8.0 hrs
# [10] = tested on: BMDM; experiment: Antiinflammatory activity in LPS-induced sepsis C57BL/6 mouse BMDM cells assessed as reduction in IL-6 mRNA expression at 1 uM treated 1 hr before LPS stimulation and measured after 2 and 6 hrs by qRT-PCR analysis; assay type: functional, cell-based; conditions: time 2-6 hrs
# [11] = tested on: BMDM; experiment: Antiinflammatory activity in LPS-induced sepsis C57BL/6 mouse BMDM cells assessed as reduction in IL-1beta mRNA expression at 1 uM treated 1 hr before LPS stimulation and measured after 2 and 6 hrs by qRT-PCR analysis; assay type: functional, cell-based; conditions: time 2-6 hrs
# [12] = tested on: BMDM; experiment: Antiinflammatory activity in LPS-induced sepsis C57BL/6 mouse BMDM cells assessed as reduction in TNF-alpha mRNA expression at 1 uM treated 1 hr before LPS stimulation and measured after 2 and 6 hrs by qRT-PCR analysis; assay type: functional, cell-based; conditions: time 2-6 hrs
# [13] = tested on: BMDM; experiment: Antiinflammatory activity in LPS-induced sepsis C57BL/6 mouse BMDM cells assessed as reduction in IL-6 secretion at 1 uM treated 1 hr before LPS stimulation and measured after 12 and 24 hrs by ELISA; assay type: functional, cell-based; conditions: time 12-24 hrs
# [14] = tested on: BMDM; experiment: Antiinflammatory activity in LPS-induced sepsis C57BL/6 mouse BMDM cells assessed as reduction in IL-1beta secretion at 1 uM treated 1 hr before LPS stimulation and measured after 12 and 24 hrs by ELISA; assay type: functional, cell-based; conditions: time 12-24 hrs
# [15] = tested on: BMDM; experiment: Antiinflammatory activity in LPS-induced sepsis C57BL/6 mouse BMDM cells assessed as reduction in TNF-alpha secretion at 1 uM treated 1 hr before LPS stimulation and measured after 12 and 24 hrs by ELISA; assay type: functional, cell-based; conditions: time 12-24 hrs
# [16] = tested on: BMDM; experiment: Antiinflammatory activity in CpG-induced sepsis C57BL/6 mouse BMDM cells assessed as reduction in IL-6 mRNA expression at 1 uM treated 1 hr before CpG stimulation by qRT-PCR analysis; assay type: functional, cell-based
# [17] = tested on: BMDM; experiment: Antiinflammatory activity in CpG-induced sepsis C57BL/6 mouse BMDM cells assessed as reduction in IL-1beta mRNA expression at 1 uM treated 1 hr before CpG stimulation by qRT-PCR analysis; assay type: functional, cell-based
# [18] = tested on: BMDM; experiment: Antiinflammatory activity in CpG-induced sepsis C57BL/6 mouse BMDM cells assessed as reduction in TNF-alpha mRNA expression at 1 uM treated 1 hr before CpG stimulation by qRT-PCR analysis; assay type: functional, cell-based
# [19] = tested on: BMDM; experiment: Antiinflammatory activity in CpG-induced sepsis C57BL/6 mouse BMDM cells assessed as reduction in IL-6 secretion at 1 uM treated 1 hr before CpG stimulation and measured after 12 and 24 hrs by ELISA; assay type: functional, cell-based; conditions: time 12-24 hrs
# [20] = tested on: BMDM; experiment: Antiinflammatory activity in CpG-induced sepsis C57BL/6 mouse BMDM cells assessed as reduction in IL-1beta secretion at 1 uM treated 1 hr before CpG stimulation and measured after 12 and 24 hrs by ELISA; assay type: functional, cell-based; conditions: time 12-24 hrs
# [21] = tested on: BMDM; experiment: Antiinflammatory activity in CpG-induced sepsis C57BL/6 mouse BMDM cells assessed as reduction in TNF-alpha secretion at 1 uM treated 1 hr before CpG stimulation and measured after 12 and 24 hrs by ELISA; assay type: functional, cell-based; conditions: time 12-24 hrs
# [22] = tested on: BMDM; experiment: Induction of IL-4-induced polarization of C57BL/6 mouse BMDM cells to M2 assessed as Arg mRNA expression at 1 uM pretreated for 1 hr by qRT-PCR analysis; assay type: functional, cell-based
# [23] = tested on: BMDM; experiment: Induction of IL-4-induced polarization of C57BL/6 mouse BMDM cells to M2 assessed as Mrc mRNA expression at 1 uM pretreated for 1 hr by qRT-PCR analysis; assay type: functional, cell-based
# [24] = tested on: BMDM; experiment: Inhibition of JNK signalling in LPS-induced sepsis wild type C57BL/6 mouse BMDM cells assessed as reduction in AP-1 expression at 1 uM pretreated for 1 hr by Western blot assay; assay type: cell-based
# [25] = tested on: BMDM; experiment: Inhibition of JNK signalling in LPS-induced sepsis wild type C57BL/6 mouse BMDM cells assessed as reduction in NF-kappaB expression at 1 uM pretreated for 1 hr by Western blot assay; assay type: cell-based
# [26] = tested on: BMDM; experiment: Inhibition of JNK signalling in LPS-induced sepsis wild type C57BL/6 mouse BMDM cells assessed as reduction in JNK-2 phosphorylation at 1 uM pretreated for 1 hr by Western blot assay; assay type: cell-based
# [27] = tested on: BMDM; experiment: Inhibition of JNK signalling in LPS-induced sepsis wild type C57BL/6 mouse BMDM cells assessed as reduction in p38 phosphorylation at 1 uM pretreated for 1 hr by Western blot assay; assay type: cell-based
# [28] = tested on: BMDM; experiment: Inhibition of JNK signalling in LPS-induced sepsis wild type C57BL/6 mouse BMDM cells assessed as reduction in IkappaBalpha phosphorylation at 1 uM pretreated for 1 hr by Western blot assay; assay type: cell-based
# [29] = tested on: BMDM; experiment: Inhibition of JNK signalling in LPS-induced sepsis wild type C57BL/6 mouse BMDM cells assessed as reduction in IKKbeta phosphorylation at 1 uM pretreated for 1 hr by Western blot assay; assay type: cell-based
# [30] = tested on: BMDM; experiment: Antiinflammatory activity in CpG-induced sepsis C57BL/6 mouse BMDM cells harboring JNK assessed as reduction in IL-6 mRNA expression at 1 uM pretreated for 1 hr by qRT-PCR analysis; assay type: functional, cell-based
# [31] = tested on: BMDM; experiment: Antiinflammatory activity in CpG-induced sepsis C57BL/6 mouse BMDM cells harboring JNK assessed as reduction in TNF mRNA expression at 1 uM pretreated for 1 hr by qRT-PCR analysis; assay type: functional, cell-based
# [32] = tested on: BMDM; experiment: Antiinflammatory activity in CpG-induced sepsis C57BL/6 mouse BMDM cells harboring JNK assessed as reduction in Nos2 mRNA expression at 1 uM pretreated for 1 hr by qRT-PCR analysis; assay type: functional, cell-based
structure (smiles),measurement,setting,value
[Na+].[O-]/N=C1/c2ccccc2-c2nc3ccccc3nc21,Activity,[1],Active
same,Activity,[2],17.2%
same,Activity,[3],9.2%
same,Activity,[4],18.8%
same,Activity,[5],8.6%
same,Activity,[6],Active
same,Activity,[7],Active
same,Activity,[8],Active
same,Activity,[9],Active
same,Activity,[10],Active
same,Activity,[11],Active
same,Activity,[12],Active
same,Activity,[13],Active
same,Activity,[14],Active
same,Activity,[15],Active
same,Activity,[16],Active
same,Activity,[17],Active
same,Activity,[18],Active
same,Activity,[19],Active
same,Activity,[20],Active
same,Activity,[21],Active
same,Activity,[22],inactive
same,Activity,[23],inactive
same,inhibition,[24],Active
same,inhibition,[25],inactive
same,inhibition,[26],Active
same,inhibition,[27],Active
same,inhibition,[28],Active
same,inhibition,[29],Active
same,Activity,[30],Active
same,Activity,[31],Active
same,Activity,[32],Active
